Experimental data from ChEMBL document CHEMBL5370660, “Design of a Supersoft Topical JAK Inhibitor, Which Is Effective in Human Skin but Rapidly Deactivated in Blood” (J Med Chem, 2023).
In brackets after ≈: the same amount, converted by molar mass. Activity calls are given as the source filed them. The rule behind the calls is not given here.

Experiments:
[1] = (§1) Stability of compound in fresh human skin explant using Franz diffusion cell model assessed as compound concentration in dermis at 0.5 % administered topically preincubated overnight followed by fresh media replacement in receiver fluid without compound and subsequently stimulated with IL-4/IL-13 measured after 40 hrs by LC-MS/MS analysis; format: ADME, tissue-based, Skin of body; details: topical or ocular, read-out: Ct
[2] = Permeability of compound; format: ADME; details: not told; read-out: permeability
[3] = test system: Homo sapiens; assay: (§2) Inhibition of Eotaxin-3 gene expression in IL-4/IL-13-stimulated fresh human skin explant using Franz diffusion cell model at 0.5 % administered topically preincubated overnight followed by fresh media replacement in receiver fluid without compound and subsequently stimulated with IL-4/IL-13 measured after 24 hrs by RT-qPCR analysis; format: functional, tissue-based; details: Skin of body
[4] = biological target: JAK2/JAK1 (Homo sapiens, UniProt O60674+P23458); assay: Inhibition of JAK1/2-mediated STAT1 phosphorylation in human M07E cells preincubated for 30 mins followed by IFN-alpha stimulation measured after 15 mins by flow cytometry; format: cell-based
[5] = test system: Homo sapiens; assay: Downregulation of GSVA score in human abdominal skin model at 0.2 % administered topically as cream treated for 24 hrs followed by removal of cream and stratum corneum and subsequently stimulated with IL-4/IL-13 measured after 3 hrs; format: functional, tissue-based; details: Abdomen skin, route top, time 27.0 hrs
[6] = Stability in human whole blood assessed as half life at 1 uM incubated upto 8 hrs by LC-MS/MS analysis; format: ADME, tissue-based
[7] = Thermodynamic solubility of the compound at pH 6.8 using crystalline form of sample; format: physicochemical; details: read-out: Therm_solubility
[8] = Metabolic stability in human skin S9 fraction measured upto 120 mins by LC-MS analysis; format: ADME, subcellular
[9] = as §1, with “Drug penetration” for “Stability of compound”, “receiver fluid” for “dermis”, “24” for “40”; format: ADME, tissue-based, Skin of body; details: artificial membrane
[10] = biological target: T1, C-C motif chemokine 17 (Homo sapiens, UniProt Q92583); assay: Inhibition of TARC in human skin immersion culture at 10 uM preincubated for 3 hrs followed by IL-4/IL-13 stimulation measured after 18 hrs by MSD assay relative to control; format: tissue-based, Skin of body; details: time 21 hrs
T1 sequence (Q92583 whole entry): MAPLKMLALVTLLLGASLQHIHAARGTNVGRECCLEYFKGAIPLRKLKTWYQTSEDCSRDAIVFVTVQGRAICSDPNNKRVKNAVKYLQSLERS

[11] = Lipophilicity, LogD of compound; format: physicochemical; details: octanol/water
[12] = Saturation solubility of compound in PEG400/transcutol/benzyl alcohol/water mixture using crystalline form of sample; format: physicochemical
[13] = test system: Homo sapiens; assay: as §2, with “TARC” for “Eotaxin-3”; format: functional, tissue-based; details: Skin of body
[14] = test system: Homo sapiens; assay: as §2, with “MMP12” for “Eotaxin-3”; format: functional, tissue-based; details: Skin of body
[15] = Half life in human blood; format: ADME, tissue-based
[16] = biological target: Tyrosine-protein kinase JAK2 (Homo sapiens, UniProt O60674); assay: Inhibition of GST-fused JAK2 (808 to 1132 residues)(unknown origin) using Carboxyfluorescein-Ahx-GGEEEEYFELVKKKK peptide as substrate incubated for 30 mins in presence of ATP by caliper microfluidic mobility shift assay
[17] = biological target: Tyrosine-protein kinase JAK1 (Homo sapiens, UniProt P23458); assay: Inhibition of GST-fused JAK1 (866 to 1154 residues)(unknown origin) using FITC-Ahr-KKSRGDYMTMQIG-NH2 peptide as substrate incubated for 30 mins in presence of ATP by caliper microfluidic mobility shift assay
[18] = biological target: T2, Tyrosine-protein kinase JAK3 (Homo sapiens, UniProt P52333); assay: Inhibition of GST-fused JAK3 (811 to 1124 residues)(unknown origin) using Carboxyfluorescein-Ahx-GGEEEEYFELVKKKK peptide as substrate incubated for 30 mins in presence of ATP by caliper microfluidic mobility shift assay
T2 sequence (P52333 whole entry): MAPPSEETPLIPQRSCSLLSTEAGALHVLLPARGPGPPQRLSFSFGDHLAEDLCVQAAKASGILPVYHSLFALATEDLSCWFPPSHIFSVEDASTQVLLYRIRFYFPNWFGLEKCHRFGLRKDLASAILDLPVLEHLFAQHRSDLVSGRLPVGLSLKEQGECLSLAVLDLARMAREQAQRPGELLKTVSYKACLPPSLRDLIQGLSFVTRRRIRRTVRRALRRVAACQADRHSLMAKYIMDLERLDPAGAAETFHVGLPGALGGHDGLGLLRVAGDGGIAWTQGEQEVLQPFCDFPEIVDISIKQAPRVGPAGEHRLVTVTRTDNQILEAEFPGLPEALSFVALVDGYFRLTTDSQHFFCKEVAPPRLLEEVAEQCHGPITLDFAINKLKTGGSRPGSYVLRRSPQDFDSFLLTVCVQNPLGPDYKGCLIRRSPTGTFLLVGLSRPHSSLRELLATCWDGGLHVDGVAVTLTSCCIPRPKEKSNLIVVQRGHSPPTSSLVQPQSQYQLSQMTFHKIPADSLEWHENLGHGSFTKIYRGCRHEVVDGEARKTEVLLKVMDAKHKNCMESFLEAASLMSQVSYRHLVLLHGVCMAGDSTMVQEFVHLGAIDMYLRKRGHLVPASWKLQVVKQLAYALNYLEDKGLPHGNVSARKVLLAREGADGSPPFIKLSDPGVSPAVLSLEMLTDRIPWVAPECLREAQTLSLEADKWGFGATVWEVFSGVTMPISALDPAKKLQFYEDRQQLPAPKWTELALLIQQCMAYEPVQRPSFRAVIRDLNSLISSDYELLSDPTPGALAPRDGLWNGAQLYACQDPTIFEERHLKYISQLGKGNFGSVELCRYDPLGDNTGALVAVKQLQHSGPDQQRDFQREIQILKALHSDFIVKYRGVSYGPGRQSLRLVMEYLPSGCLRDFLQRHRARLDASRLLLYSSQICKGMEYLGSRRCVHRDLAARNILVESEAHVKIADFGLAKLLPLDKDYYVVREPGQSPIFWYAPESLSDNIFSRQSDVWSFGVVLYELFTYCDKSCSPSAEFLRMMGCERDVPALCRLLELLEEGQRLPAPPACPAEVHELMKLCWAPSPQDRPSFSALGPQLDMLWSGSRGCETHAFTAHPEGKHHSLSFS

[19] = biological target: T3, Mitogen-activated protein kinase kinase kinase 2 (Homo sapiens, UniProt Q9Y2U5); assay: Inhibition of MAP3K2 (unknown origin)
T3 sequence (Q9Y2U5 whole entry): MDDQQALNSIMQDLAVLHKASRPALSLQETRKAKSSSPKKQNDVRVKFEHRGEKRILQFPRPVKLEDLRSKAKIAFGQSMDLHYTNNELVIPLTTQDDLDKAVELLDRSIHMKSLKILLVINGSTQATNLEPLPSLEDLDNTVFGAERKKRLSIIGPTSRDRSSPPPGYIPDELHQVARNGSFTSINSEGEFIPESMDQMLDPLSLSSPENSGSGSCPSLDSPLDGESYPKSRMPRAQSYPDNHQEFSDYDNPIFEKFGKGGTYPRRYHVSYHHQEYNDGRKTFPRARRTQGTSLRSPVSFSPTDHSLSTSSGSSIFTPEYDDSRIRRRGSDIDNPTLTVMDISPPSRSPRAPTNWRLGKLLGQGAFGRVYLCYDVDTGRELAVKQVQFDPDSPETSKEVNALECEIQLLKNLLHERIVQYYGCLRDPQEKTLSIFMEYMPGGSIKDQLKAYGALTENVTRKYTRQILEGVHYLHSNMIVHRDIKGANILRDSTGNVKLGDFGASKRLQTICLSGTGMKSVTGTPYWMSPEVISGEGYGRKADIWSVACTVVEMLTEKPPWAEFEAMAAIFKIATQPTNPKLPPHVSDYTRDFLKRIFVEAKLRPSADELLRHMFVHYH

[20] = biological target: Non-receptor tyrosine-protein kinase TYK2 (Homo sapiens, UniProt P29597); assay: Inhibition of GST-fused TYK2 (888 to 1187 residues)(unknown origin) using FITC-Ahr-KKSRGDYMTMQIG-NH2 peptide as substrate incubated for 30 mins in presence of ATP by caliper microfluidic mobility shift assay
[21] = biological target: T4, JAK3/JAK1 (Homo sapiens, UniProt P23458+P52333); assay: Inhibition of JAK1/3-mediated STAT5 phosphorylation in human whole blood incubated for 30 mins followed by IL-2 addition measured after 15 mins by flow cytometry; format: tissue-based
[22] = biological target: T5, Eukaryotic translation initiation factor 2-alpha kinase 3 (Homo sapiens, UniProt Q9NZJ5); assay: Inhibition of EIF2AK3 (unknown origin)
T5 sequence (Q9NZJ5 whole entry): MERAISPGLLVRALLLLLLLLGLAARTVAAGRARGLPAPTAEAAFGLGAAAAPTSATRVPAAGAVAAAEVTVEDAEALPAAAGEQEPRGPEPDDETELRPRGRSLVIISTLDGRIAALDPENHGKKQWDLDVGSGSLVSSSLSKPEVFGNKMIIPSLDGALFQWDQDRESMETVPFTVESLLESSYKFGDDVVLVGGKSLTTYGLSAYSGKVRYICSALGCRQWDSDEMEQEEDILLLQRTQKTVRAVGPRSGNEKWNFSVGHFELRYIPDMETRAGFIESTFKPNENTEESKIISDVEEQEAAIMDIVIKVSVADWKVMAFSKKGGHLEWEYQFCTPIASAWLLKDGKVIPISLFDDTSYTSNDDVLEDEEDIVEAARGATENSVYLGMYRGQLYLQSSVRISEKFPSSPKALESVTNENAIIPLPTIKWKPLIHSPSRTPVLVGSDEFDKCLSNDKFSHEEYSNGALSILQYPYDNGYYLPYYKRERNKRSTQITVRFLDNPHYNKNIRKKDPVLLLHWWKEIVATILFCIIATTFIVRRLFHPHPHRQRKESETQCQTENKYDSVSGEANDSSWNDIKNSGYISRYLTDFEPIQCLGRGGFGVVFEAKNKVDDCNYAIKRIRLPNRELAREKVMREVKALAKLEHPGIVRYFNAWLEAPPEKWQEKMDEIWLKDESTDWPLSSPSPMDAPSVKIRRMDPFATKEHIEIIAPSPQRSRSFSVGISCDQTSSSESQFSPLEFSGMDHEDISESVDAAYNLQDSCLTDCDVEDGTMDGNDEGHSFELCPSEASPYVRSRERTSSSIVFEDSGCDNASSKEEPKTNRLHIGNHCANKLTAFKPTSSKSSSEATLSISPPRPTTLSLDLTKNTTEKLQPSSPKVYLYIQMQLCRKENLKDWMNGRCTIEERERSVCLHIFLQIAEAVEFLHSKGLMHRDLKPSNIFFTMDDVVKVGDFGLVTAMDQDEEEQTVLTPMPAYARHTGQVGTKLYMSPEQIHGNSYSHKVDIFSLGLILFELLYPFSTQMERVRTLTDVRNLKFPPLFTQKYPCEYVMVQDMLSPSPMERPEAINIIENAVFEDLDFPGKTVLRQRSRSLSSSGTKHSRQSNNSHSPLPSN

[23] = biological target: T4, JAK3/JAK1; assay: Inhibition of JAK1/3-mediated STAT5 phosphorylation in human M07E cells preincubated for 30 mins followed by IL-15 stimulation measured after 15 mins by flow cytometry; format: cell-based
[24] = Stability of compound under temperature stress assessed as compound degradation at 50 degreeC measured after 7 days using amorphous form of sample; format: physicochemical; details: time 7 day; read-out: Drug degradation
[25] = Solubility of the compound at pH 6.8 using amorphous form of sample; format: physicochemical; details: buffer
[26] = Stability of compound under light stress assessed as compound decomposition under sunlight with intensity of 4000 KJ/m2, irradiation of 250 W/m2, wavelength of >290 nm, temperature of 37 degreeC for 4 hrs using amorphous form of sample; format: ADME; details: read-out: Drug degradation
[27] = Saturation solubility of compound in PEG400/transcutol/benzyl alcohol/water mixture using amorphous form of sample; format: physicochemical

Chain of Tyrosine-protein kinase JAK2 (O60674 whole entry, the tested form may be a part): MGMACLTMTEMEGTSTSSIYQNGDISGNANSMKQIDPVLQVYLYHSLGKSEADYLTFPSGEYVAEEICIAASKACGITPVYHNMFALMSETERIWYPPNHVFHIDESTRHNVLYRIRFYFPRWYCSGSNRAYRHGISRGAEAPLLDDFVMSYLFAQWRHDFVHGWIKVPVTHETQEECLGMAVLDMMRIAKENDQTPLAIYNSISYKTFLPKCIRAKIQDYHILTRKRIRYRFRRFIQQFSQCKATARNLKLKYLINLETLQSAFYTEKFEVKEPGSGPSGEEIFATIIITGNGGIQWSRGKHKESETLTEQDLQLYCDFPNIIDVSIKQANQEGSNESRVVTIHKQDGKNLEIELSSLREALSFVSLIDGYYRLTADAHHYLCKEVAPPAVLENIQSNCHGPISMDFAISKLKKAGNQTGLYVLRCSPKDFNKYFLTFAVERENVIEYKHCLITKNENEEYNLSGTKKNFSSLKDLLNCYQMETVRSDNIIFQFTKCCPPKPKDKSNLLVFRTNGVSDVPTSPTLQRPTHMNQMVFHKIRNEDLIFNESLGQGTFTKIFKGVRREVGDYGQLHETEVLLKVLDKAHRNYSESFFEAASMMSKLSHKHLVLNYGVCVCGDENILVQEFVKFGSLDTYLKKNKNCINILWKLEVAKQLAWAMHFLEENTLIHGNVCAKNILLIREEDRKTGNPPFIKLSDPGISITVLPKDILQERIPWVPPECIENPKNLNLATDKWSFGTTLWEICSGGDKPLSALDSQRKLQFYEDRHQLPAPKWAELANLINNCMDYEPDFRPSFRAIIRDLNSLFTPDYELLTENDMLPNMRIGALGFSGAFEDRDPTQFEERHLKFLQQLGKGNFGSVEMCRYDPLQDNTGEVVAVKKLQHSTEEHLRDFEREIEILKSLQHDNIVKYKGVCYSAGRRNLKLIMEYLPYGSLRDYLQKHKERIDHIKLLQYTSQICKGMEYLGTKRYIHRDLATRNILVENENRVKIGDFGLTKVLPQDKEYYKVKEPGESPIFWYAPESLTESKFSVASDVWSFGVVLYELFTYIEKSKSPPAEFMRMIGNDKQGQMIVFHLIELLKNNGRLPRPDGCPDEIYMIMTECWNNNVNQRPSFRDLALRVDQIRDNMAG
T4 sequence (P23458 whole entry, one chain of several): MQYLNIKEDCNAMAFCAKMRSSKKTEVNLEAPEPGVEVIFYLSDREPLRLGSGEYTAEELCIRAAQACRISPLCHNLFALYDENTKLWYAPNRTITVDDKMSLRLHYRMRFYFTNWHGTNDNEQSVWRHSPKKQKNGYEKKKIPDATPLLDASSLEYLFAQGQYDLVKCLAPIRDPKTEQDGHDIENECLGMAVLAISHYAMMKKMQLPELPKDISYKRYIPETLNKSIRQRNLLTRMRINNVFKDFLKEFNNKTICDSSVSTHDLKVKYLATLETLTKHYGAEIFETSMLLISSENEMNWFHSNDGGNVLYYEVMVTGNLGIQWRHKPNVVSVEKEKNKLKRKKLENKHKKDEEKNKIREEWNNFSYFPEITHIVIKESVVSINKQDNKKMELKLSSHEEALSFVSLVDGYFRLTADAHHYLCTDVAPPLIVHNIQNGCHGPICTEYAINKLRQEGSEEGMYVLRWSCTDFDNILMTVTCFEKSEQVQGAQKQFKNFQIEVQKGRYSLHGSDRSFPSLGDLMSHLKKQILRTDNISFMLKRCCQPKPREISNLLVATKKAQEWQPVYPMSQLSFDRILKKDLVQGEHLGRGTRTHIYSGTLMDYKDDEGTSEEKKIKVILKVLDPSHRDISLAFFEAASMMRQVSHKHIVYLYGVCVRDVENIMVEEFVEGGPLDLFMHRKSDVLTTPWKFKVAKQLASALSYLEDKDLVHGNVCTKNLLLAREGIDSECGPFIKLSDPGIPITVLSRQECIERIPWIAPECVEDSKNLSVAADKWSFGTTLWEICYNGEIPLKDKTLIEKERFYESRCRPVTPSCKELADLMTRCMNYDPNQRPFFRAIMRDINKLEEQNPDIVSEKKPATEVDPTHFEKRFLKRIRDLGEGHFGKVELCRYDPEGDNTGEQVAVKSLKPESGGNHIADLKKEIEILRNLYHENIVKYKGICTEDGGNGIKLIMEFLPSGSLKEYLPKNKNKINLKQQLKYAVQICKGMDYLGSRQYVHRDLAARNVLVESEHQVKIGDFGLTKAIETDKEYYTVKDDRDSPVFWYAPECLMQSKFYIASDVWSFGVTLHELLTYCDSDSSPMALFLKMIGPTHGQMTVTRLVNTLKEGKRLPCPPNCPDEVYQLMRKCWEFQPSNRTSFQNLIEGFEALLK
Chain of JAK2/JAK1 (P23458 whole entry): as the sequence (P23458 whole entry, one chain of several) above
Chain of JAK2/JAK1 (O60674 whole entry): as the sequence (O60674 whole entry, the tested form may be a part) above
Chain of Tyrosine-protein kinase JAK1 (P23458 whole entry, the tested form may be a part): as the sequence (P23458 whole entry, one chain of several) above
Chain of Non-receptor tyrosine-protein kinase TYK2 (P29597 whole entry, the tested form may be a part): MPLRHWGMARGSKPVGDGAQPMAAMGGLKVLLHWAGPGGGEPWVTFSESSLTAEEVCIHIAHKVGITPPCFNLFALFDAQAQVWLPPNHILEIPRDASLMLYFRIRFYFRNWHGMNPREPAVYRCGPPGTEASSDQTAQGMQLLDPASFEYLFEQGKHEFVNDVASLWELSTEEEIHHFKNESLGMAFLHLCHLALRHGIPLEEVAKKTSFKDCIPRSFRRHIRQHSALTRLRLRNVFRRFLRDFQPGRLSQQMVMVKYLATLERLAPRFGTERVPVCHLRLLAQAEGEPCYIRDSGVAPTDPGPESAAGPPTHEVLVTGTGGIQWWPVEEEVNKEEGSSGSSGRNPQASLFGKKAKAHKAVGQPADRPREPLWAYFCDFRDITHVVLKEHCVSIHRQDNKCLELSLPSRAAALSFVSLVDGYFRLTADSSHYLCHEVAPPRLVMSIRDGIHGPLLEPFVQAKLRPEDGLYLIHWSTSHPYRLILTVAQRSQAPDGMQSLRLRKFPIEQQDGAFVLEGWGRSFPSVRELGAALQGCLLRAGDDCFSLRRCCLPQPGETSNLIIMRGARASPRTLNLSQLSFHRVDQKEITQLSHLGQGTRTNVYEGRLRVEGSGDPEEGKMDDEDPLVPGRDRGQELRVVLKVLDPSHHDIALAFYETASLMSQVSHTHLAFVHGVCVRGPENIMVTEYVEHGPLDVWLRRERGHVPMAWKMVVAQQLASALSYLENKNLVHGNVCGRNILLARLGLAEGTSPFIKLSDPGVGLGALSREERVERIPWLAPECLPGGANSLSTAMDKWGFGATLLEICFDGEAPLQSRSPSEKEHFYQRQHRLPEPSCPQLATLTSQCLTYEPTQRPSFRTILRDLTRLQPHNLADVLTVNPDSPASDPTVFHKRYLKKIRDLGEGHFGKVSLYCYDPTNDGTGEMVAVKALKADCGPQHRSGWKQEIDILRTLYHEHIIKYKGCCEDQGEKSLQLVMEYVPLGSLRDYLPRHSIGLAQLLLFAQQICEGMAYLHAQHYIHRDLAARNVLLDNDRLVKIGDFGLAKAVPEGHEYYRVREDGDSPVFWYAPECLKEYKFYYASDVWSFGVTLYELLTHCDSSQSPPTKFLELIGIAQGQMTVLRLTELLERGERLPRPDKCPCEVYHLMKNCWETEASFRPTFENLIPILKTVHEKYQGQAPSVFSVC

In the case of `Cc1cccc(Nc2cc(Nc3ccccc3Cl)c(C(N)=O)cn2)n1`, the concentration at 40 h, 0.5 % [1] is reported as 33 µM, the Papp [2] is reported as 6.7 ×10⁻⁶ cm/s and the inhibition [3] is reported as “Active”. The IC50 [4] was 85 nM, the Activity [5] was “Active” and the half-life at 1 µM [6] was greater than 240 min. For the same molecule, the solubility thermodynamic [7] was 0.1 µg/mL (≈ 0.000283 mM), the half-life [8] was greater than 240 min and the Drug uptake [9] was 0.004 µM. For the same molecule, the inhibition at 10 µM [10] was 100%, the logD [11] was 4.4 and the solubility thermodynamic [12] was 2800 µg/mL (≈ 7.91 mM). The inhibition [13] was “Active” and the inhibition [14] was “Active”.
Molecule `CCOC(=O)Oc1cccc(Nc2cc(Nc3ccccc3Cl)c(C(N)=O)cn2)n1` has a half-life [15] of roughly 4 min, an IC50 [4] of 71 nM and an IC50 [16] of 5220 nM. The half-life at 1 µM [6] was 4 min and the half-life [8] was 7 min.
`COc1ccccc1Nc1cc(Nc2ccc(CC(=O)O)cn2)ncc1C(N)=O` showed an IC50 [17] of 5 nM, a Papp [2] of 0.5 ×10⁻⁶ cm/s and an IC50 [4] greater than 10000 nM. It also gave an IC50 [16] of 11 nM, a half-life at 1 µM [6] greater than 240 min and a half-life [8] of less than 240 min. For the same molecule, the logD [11] was 0.25, the IC50 [18] was 10 nM and the IC50 [19] was less than 100 nM. The IC50 [20] was 7 nM, the IC50 [21] was greater than 40 µM and the IC50 [22] was less than 100 nM. The IC50 [23] was 7.02 µM.
Molecule `COC(=O)Cc1ccc(Nc2cc(Nc3ccccc3Cl)c(C(N)=O)cn2)nc1` has a degraded at 168 h [24] of 11%, an IC50 [17] of 9 nM and an IC50 [4] of 37 nM. For the same molecule, the IC50 [16] was 10 nM, the half-life at 1 µM [6] was 5 min and the solubility [25] was 3 µg/mL (≈ 0.00728 mM). The degraded at 4 h [26] was 7%, the half-life [8] was 12 min and the logD [11] was 3.8. For the same molecule, the IC50 [18] was 13 nM, the IC50 [21] was 7.85 µM and the solubility thermodynamic [27] was 5400 µg/mL (≈ 13.1 mM). It also gave an IC50 [23] of 0.027 µM.
